20 compounds from patent US9290496B2, “Purine derivatives” (PFIZER INC., priority 2013, dated 2016) can be followed below.

As a reminder, the IC50 is the point on the concentration scale where inhibition reaches its midpoint. A higher IC50 goes with weaker potency.

For assay [1], the target named is T1, EGFR L858R+T790M, endogenous (NCI-H1975) (Homo sapiens, UniProt P00533, L858R/T790M).
T1 construct: NCI-H1975 (EGFR L858R+T790M, endogenous); host or cells: NCI-H1975
In words: pEGFR Y1068 ELISA assay, NCI-H1975 cells. The format is cell-based. The conditions noted are these: inhibition of phosphorylation of EGFR at Tyr1068; NCI-H1975 NSCLC cells; 2 hr compound incubation. On the technique in general: An ELISA detects its analyte on a solid surface through an enzyme-linked reagent.
Description: Phosphorylation of EGFR at Y1068 was measured by PathScan® Phospho-EGF Receptor (Try1068) Sandwich ELISA kit (#7240, Cell Signaling Technology®, Danvers, Mass.). The PathScan® Phospho-EGF Receptor (Tyr1068) Sandwich ELISA Kit is a solid phase sandwich enzyme-linked immunosorbent assay (ELISA) that detects endogenous levels of phospho-EGF Receptor (Tyr1068) protein. […] All cells were cultured according to ATCC recommendations. A549, NCI-H1975, PC9, and NCI-H3255 cells were grown in RPMI media (Invitrogen, Carlsbad, Calif.) supplemented with 10% FBS (Sigma, St Louis, Mo.), and with 1% Penn/Strep (Invitrogen). PC9-DRH cells were grown in RPMI with 10% FBS and 1 μM dacomitinib.
Cells were plated at 40,000/well in complete culture media (50 μL/well) on the bottom of clear tissue culture treated microtiter plates (#3595, Corning Inc, Corning, N.Y.) and allowed to adhere overnight at 37° C., 5% CO2. The following day, compound dilution plates were prepared in 96 well clear V-bottom 0.5 mL polypropylene block plates (#3956, Corning, Inc). Each compound was prepared as a DMSO stock solution (10 mM). Compounds were tested in duplicate on each plate, with an 11-point serial dilution curve (1:3 dilution). Compound treatment (50 μL) was added from the compound dilution plate to the cell plate. […] Plates were then incubated for 2 hr at 37° C., 5% CO2. For A549 (EGFR wildtype) assay, cells were plated in full-serum (10%) media for 24 hr prior to compound treatment; cells were treated in full serum media as described and then stimulated for 10 min with EGF (40 ng/mL/starvation media, Invitrogen). Immediately prior to the end of the incubation, ice-cold lysis buffer was prepared (1× Cell Lysis Buffer (#9803, Cell Signaling Technology), 1 mM sodium orthovanadate (Na3VO4, #96508, Sigma), 1 mM phenylmethanesulfonyl fluoride (PMSF, 52332, CalBiochem/EMD Chemicals), complete Mini EDTA-free Protease Inhibitor Cocktail Tablet (1 tablet/10 mL, #11836170001, Roche, Indianapolis, Ind.), and PhosSTOP Phosphatase Inhibitor Cocktail Tablet (1 tablet/10 mL, #04906837001, Roche) in pure water. At the end of 2 hr, media was flicked off and cells were washed once with ice-cold 1 mM Na3VO4 in PBS (100 μL/well, Invitrogen). The wash was then flicked off and ice-cold lysis buffer was added to the cells (50 μL/well). The plate was shaken for 20-30 min at 4° C. to completely lyse the cells. Sample diluent (50 μL/well) was added to the ELISA plate, and the lysate (50 μL) was diluted into the sample diluent in each well of the ELISA plate. Plates were sealed and incubated overnight at 4° C. with shaking. The next day, wells were washed four times with 1× Wash Buffer; plates were taped on lint-free paper after the final wash prior to adding Add Detection Antibody (green, 100 μL/well) to each well and incubating for 1 hr at 37° C. After incubation, wells were washed as described. HRP-Linked secondary antibody (red, 100 μL/well) was added to each well and incubated for 30 min at 37° C. After incubation, the wells were washed as described. TMB Substrate (100 μL/well) was added to each well and the plate incubated for 10 min at 37° C. or 30 min at rt maximum. Stop Solution (100 μL/well) was added to each well at the end of the incubation and plates were shaken gently for a few seconds. Absorbance was read at 450 nm within 30 min after addition of Stop Solution on a PerkinElmer EnVision Excite Multilabel Reader Method for Absorbance or on a Molecular Devices SpectraMax^384 Reader for absorbance. Data were analyzed using a four-parameter fit in Microsoft Excel.

In assay [2] the target is T2, EGFR wildtype, endogenous (A549) (Homo sapiens, UniProt P00533).
T2 construct: A549 (EGFR wildtype, endogenous); host or cells: A549 (stimulated with EGF)
T2 sequence (P00533 25-1210): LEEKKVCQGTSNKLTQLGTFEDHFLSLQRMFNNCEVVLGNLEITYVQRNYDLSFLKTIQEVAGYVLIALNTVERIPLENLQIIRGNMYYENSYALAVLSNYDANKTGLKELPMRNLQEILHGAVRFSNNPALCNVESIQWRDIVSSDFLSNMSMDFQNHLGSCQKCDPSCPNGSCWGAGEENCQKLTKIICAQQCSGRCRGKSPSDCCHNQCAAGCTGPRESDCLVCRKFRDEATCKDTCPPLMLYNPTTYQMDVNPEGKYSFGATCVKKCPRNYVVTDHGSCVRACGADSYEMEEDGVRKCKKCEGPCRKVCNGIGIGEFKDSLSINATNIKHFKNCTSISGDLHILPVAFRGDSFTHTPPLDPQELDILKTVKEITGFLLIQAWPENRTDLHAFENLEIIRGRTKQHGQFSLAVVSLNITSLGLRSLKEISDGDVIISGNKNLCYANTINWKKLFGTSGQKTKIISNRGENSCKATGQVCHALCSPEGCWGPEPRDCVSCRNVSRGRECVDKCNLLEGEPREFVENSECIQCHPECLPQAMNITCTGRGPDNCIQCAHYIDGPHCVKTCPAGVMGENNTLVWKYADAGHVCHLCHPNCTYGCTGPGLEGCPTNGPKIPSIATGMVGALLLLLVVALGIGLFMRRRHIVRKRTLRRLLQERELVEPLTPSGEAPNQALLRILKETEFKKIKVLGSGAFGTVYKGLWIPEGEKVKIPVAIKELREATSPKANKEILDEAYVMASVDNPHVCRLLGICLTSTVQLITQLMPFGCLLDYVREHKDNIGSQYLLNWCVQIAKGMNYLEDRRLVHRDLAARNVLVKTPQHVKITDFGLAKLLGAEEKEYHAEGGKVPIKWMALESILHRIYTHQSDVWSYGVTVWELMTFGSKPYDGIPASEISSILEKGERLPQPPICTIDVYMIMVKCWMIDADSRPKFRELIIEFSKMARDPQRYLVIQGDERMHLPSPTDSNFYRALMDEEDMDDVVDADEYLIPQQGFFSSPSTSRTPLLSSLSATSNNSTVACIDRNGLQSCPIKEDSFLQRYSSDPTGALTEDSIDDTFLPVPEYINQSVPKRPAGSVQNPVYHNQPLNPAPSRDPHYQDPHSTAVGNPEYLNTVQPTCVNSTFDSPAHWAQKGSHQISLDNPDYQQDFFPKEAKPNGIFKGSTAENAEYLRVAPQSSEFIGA
In words: pEGFR Y1068 ELISA assay, A549 cells. The conditions noted are these: inhibition of phosphorylation of EGFR at Tyr1068; A549 NSCLC cells; 2 hr compound incubation, then stimulated 10 min with EGF (40 ng/mL). Type of assay: cell-based.

T1 sequence (P00533 25-1210 T790M/L858R): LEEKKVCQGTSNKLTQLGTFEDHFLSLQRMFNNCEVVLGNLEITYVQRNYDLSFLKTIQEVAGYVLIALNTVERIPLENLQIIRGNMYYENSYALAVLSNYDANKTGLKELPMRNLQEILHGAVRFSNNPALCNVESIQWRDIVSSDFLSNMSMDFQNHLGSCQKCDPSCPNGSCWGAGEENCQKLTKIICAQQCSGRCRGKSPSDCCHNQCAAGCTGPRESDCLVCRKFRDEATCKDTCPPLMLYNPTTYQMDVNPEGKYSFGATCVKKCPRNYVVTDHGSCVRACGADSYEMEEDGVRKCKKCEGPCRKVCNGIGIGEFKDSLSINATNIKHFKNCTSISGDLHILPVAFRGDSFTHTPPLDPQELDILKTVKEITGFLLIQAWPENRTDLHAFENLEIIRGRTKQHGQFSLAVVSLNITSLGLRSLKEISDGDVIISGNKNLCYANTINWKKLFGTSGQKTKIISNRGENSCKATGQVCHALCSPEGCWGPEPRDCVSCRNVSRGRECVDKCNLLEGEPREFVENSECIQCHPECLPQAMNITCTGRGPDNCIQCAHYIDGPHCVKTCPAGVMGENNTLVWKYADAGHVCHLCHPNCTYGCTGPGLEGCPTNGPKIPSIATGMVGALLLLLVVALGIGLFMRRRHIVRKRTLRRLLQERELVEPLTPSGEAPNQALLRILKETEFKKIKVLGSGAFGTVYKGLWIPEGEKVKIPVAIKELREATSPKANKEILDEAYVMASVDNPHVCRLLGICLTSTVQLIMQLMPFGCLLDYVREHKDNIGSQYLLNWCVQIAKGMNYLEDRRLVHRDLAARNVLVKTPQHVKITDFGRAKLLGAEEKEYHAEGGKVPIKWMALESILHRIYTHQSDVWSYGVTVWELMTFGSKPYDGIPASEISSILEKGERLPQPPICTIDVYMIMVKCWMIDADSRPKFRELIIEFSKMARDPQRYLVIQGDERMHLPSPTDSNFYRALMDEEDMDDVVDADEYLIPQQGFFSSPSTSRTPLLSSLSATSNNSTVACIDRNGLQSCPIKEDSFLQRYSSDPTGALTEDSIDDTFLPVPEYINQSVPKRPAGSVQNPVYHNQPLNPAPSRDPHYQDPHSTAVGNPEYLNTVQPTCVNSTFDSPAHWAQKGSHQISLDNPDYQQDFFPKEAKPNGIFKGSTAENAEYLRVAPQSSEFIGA

In assay [1], `C=CC(=O)N[C@@H]1CN(c2nc(Nc3ccc(N4CCN(C)CC4)cc3)c3ncn(C(C)C)c3n2)C[C@H]1OC` (relative stereo) [Example 47, N-((trans)-1-(9-isopropyl-6-((4-(4-methylpiperazin-1-yl)phenyl)amino)-9H-purin-2-yl)-4-methoxypyrrolidin-3-yl)acrylamide] came in with an IC50 of 14 nM.
On to `C=CC(=O)N1C[C@H](Nc2nc(Nc3cnn(C)c3)c3ncn(C(C)C)c3n2)[C@@H](F)C1` (relative stereo) [Example 58, 1-((trans)-3-fluoro-4-((9-isopropyl-6-((1-methyl-1H-pyrazol-4-yl)amino)-9H-purin-2-yl)amino)pyrrolidin-1-yl)prop-2-en-1-one], for which the concentration for half-maximal inhibition (IC50) was 983 nM in assay [2] and 58 nM in assay [1].
The corresponding values for `C=CC(=O)N1C[C@@H]2CN(c3nc(Nc4cnn(C)c4)c4ncn(C(C)C)c4n3)C[C@]2(F)C1` (relative stereo) [Example 73, 1-(cis-3a-fluoro-5-(9-isopropyl-6-((1-methyl-1H-pyrazol-4-yl)amino)-9H-purin-2-yl)hexahydropyrrolo[3,4-c]pyrrol-2(1H)-yl)prop-2-en-1-one] are 92 nM and 9 nM.
In the case of `C=CC(=O)N1CCCC(c2nc(Nc3cnn(C)c3)c3ncn(C(C)C)c3n2)C1` (single isomer, unassigned) [Example 6, 1-(3-(9-isopropyl-6-((1-methyl-1H-pyrazol-4-yl)amino)-9H-purin-2-yl)piperidin-1-yl)prop-2-en-1-one], the IC50 in assay [2] was not below 10000 nM; in assay [1] it was 1040 nM.
The matching figures for `C=CC(=O)N1C[C@H](Nc2nc(Nc3cnn(C)c3)c3ncn(C(C)C)c3n2)[C@@H](F)C1` (single isomer, unassigned) [Example 30, 1-((trans*)-3-fluoro-4-((9-isopropyl-6-((1-methyl-1H-pyrazol-4-yl)amino)-9H-purin-2-yl)amino)pyrrolidin-1-yl)prop-2-en-1-one]: 3850 nM and 82 nM.
Turning to `C=CC(=O)N1CCC(Oc2nc(Nc3cnn(C)c3)c3ncn(C(C)C)c3n2)C1` (stereo in doubt) [Example 59, (R)-1-(3((9-isopropyl-6-((1-methyl-1H-pyrazol-4-yl)amino)-9H-purin-2-yl)oxy)pyrrolidin-1-yl)prop-2-en-1-one], the concentration for half-maximal inhibition (IC50) in assay [2] amounted to 4050 nM; in assay [1], 162 nM.
Take `C=CC(=O)NC1(C)CCN(c2nc(Nc3ccc(N4CCN(C)CC4)cc3)c3ncn(C(C)C)c3n2)C1` (stereo not drawn) [Example 10, N-(1-(9-isopropyl-6-((4-(4-methylpiperazin-1-yl)phenyl)amino)-9H-purin-2-yl)-3-methylpyrrolidin-3-yl)acrylamide]: the IC50 in assay [2] is not below 10000 nM; in assay [1], 846 nM.
As to `C=CC(=O)N[C@H]1CCN(c2nc(Nc3cn(C)nc3OC)c3ncn(C(C)C)c3n2)C1` [Example 11, (S)-N-(1-(9-isopropyl-6-((3-methoxy-1-methyl-1H-pyrazol-4-yl)amino)-9H-purin-2-yl)pyrrolidin-3-yl)acrylamide], the IC50 amounted to 2840 nM in assay [2] and 162 nM in assay [1].
The corresponding values for `C=CC(=O)N[C@H]1C[C@H](Oc2nc(Nc3ccc(N4CCN(C)CC4)cc3)c3ncn(C(C)C)c3n2)C1` [Example 14, N-((trans)-3-((9-isopropyl-6-((4-(4-methylpiperazin-1-yl)phenyl)amino)-9H-purin-2-yl)oxy)cyclobutyl)acrylamide] are not below 10000 nM and 285 nM.
In the case of `C=CC(=O)N[C@H]1CCN(c2nc(Nc3ccc(N4CCN(C)CC4)cc3)c3ncn(C4CCC4)c3n2)C1` [Example 15], the IC50 in assay [2] worked out at 117 nM; in assay [1], 55 nM.
Turning to `C=CC(=O)NC1CN(c2nc(Nc3ccc(N4CCN(C)CC4)cc3)c3ncn(C(C)C)c3n2)C1` [Example 23, N-(1-(9-isopropyl-6-((4-(4-methylpiperazin-1-yl)phenyl)amino)-9H-purin-2-yl)azetidin-3-yl)acrylamide], the 50% inhibitory concentration (IC50) in assay [2] is 1420 nM; in assay [1], 39 nM.
Consider `C=CC(=O)N(C)C1CN(c2nc(Nc3ccc(N4CCN(C)CC4)cc3)c3ncn(C(C)C)c3n2)C1` [Example 24, N-(1-(9-isopropyl-6-((4-(4-methylpiperazin-1-yl)phenyl)amino)-9H-purin-2-yl)azetidin-3-yl)-N-methylacrylamide], for which the IC50 in assay [2] is 1140 nM; in assay [1], 39 nM.
The matching figures for `C=CC(=O)N1CC[C@@H](Oc2nc(Nc3ccc(N4CCN(C)CC4)cc3)c3ncn(C(C)C)c3n2)C1` [Example 26, (R)-1-(3-((9-isopropyl-6-((4-(4-methylpiperazin-1-yl)phenyl)amino)-9H-purin-2-yl)oxy)pyrrolidin-1-yl)prop-2-en-1-one]: 682 nM and 25 nM.
The matching figures for `C=CC(=O)N1CC[C@@H](Nc2nc(Nc3ccc(N4CCN(C)CC4)cc3)c3ncn(C(C)C)c3n2)C1` [Example 27, (R)-1-(3-((9-isopropyl-6-((4-(4-methylpiperazin-1-yl)phenyl)amino)-9H-purin-2-yl)amino)pyrrolidin-1-yl)prop-2-en-1-one]: 387 nM and 29 nM.
The matching figures for `C=CC(=O)N(C)[C@H]1C[C@H](Nc2nc(Nc3ccc(N4CCN(C)CC4)cc3)c3ncn(C(C)C)c3n2)C1` [Example 28, N-((trans)-3-((9-isopropyl-6-((4-(4-methylpiperazin-1-yl)phenyl)amino)-9H-purin-2-yl)amino)cyclobutyl)-N-methylacrylamide]: 723 nM and 48 nM.
As to `C=CC(=O)N(C)C1CN(c2nc(Nc3cnn(C)c3)c3ncn(C(C)C)c3n2)C1` [Example 31, N-(1-(9-isopropyl-6((1-methyl-1H-pyrazol-4-yl)amino)-9H-purin-2-yl)azetidin-3-yl)-N-methylacrylamide], the half-inhibitory concentration (IC50) in assay [2] is 1350 nM; in assay [1] it was 76 nM.
The corresponding values for `C=CC(=O)N1CC(C)(Nc2nc(Nc3cnn(C)c3)c3ncn(C(C)C)c3n2)C1` [Example 32, 1-(3-((9-isopropyl-6-((1-methyl-1H-pyrazol-4-yl)amino)-9H-purin-2-yl)amino)-3-methylazetidin-1-yl)prop-2-en-1-one] are 1230 nM and 65 nM.
The matching figures for `C=CC(=O)N1C[C@@H]2CN(c3nc(Nc4cnn(C)c4)c4ncn(C)c4n3)C[C@@H]2C1` [Example 34, 1-((cis)-5-(9-methyl-6-((1-methyl-1H-pyrazol-4-yl)amino)-9H-purin-2-yl)hexahydropyrrolo[3,4-c]pyrrol-2(1H)-yl)prop-2-en-1-one]: 2670 nM and 161 nM.
The matching figures for `C=CC(=O)N[C@H]1CCN(c2nc(Nc3ccc(N4CCN(C)CC4)cc3)c3ncn(CC)c3n2)C1` [Example 35, (S)-N-(1-(9-ethyl-6-((4-(4-methylpiperazin-1-yl)phenyl)amino)-9H-purin-2-yl)pyrrolidin-3-yl)acrylamide]: 95 nM and 11 nM.
In the case of `C=CC(=O)N[C@H]1CCN(c2nc(Nc3cn(C)nc3C)c3ncn(C(C)C)c3n2)C1` [Example 37, (S)-N-(1-(6-((1,3-dimethyl-1H-pyrazol-4-yl)amino)-9-isopropyl-9H-purin-2-yl)pyrrolidin-3-yl)acrylamide], the values for the IC50 in assay [2] and in assay [1] were 7610 nM and 391 nM, respectively.
